# Reference: ChEMBL document CHEMBL3885881, “DrugMatrix”
# Species on record: Rattus norvegicus
# Test: DrugMatrix - Regimen: Daily Repeat
# Format: toxicity, organism-based, Sprague-Dawley
# Set-up: regimen Daily Repeat, gender Male, age 6-8 weeks
# Settings: in vivo, po, route oral GAVAGE, vehicle .5 % CMC; for ABSOLUTE BASOPHIL / ABSOLUTE EOSINOPHIL / ABSOLUTE LYMPHOCYTE / ABSOLUTE MONOCYTE / ABSOLUTE SEGMENTED NEUTROPHIL / BASOPHIL / EOSINOPHIL / ERYTHROCYTE COUNT / HEMATOCRIT / HEMOGLOBIN / LEUKOCYTE COUNT / LYMPHOCYTE / MEAN CORPUSCULAR HEMOGLOBIN / MEAN CORPUSCULAR HEMOGLOBIN CONCENTRATION / MEAN CORPUSCULAR VOLUME / MONOCYTE / NEUTROPHIL / NUCLEATED RED BLOOD CELLS / PLATELET COUNT: tissue Blood; for ALANINE AMINOTRANSFERASE / ALBUMIN / ALKALINE PHOSPHATASE / ASPARTATE AMINOTRANSFERASE / BLOOD UREA NITROGEN / CARBON DIOXIDE / CHLORIDE / CHOLESTEROL / CREATINE PHOSPHOKINASE / CREATININE / GLUCOSE / LACTATE DEHYDROGENASE / LIPASE / PHOSPHORUS / POTASSIUM / SODIUM / TOTAL BILIRUBIN / TOTAL PROTEIN / URIC ACID: tissue Plasma
# [1] = 30 mg/kg, 120 h, dose level Low, time 5 day
# [2] = 2000 mg/kg, 72 h, dose level High, time 3 day
# [3] = 2000 mg/kg, 120 h, dose level High, time 5 day
smiles,measurement,setting,value
CCOc1cc(N)c(Cl)cc1C(=O)NCC1CN(Cc2ccc(F)cc2)CCO1 (centres undefined) [MOSAPRIDE],ABSOLUTE BASOPHIL,[1],0 CELLS/uL
same,ABSOLUTE EOSINOPHIL,[1],184 CELLS/uL
same,ABSOLUTE LYMPHOCYTE,[1],14085.33 CELLS/uL
same,ABSOLUTE MONOCYTE,[1],124 CELLS/uL
same,ABSOLUTE SEGMENTED NEUTROPHIL,[1],940 CELLS/uL
same,BASOPHIL,[1],0%
same,EOSINOPHIL,[1],1.33%
same,ERYTHROCYTE COUNT,[1],5.58 x10E6/uL
same,HEMATOCRIT,[1],33.97%
same,HEMOGLOBIN,[1],13.4 G/DL
same,LEUKOCYTE COUNT,[1],15.33 x10E3/uL
same,LYMPHOCYTE,[1],91.33%
same,MEAN CORPUSCULAR HEMOGLOBIN,[1],24.07 pg
same,MEAN CORPUSCULAR HEMOGLOBIN CONCENTRATION,[1],39.43 G/DL
same,MEAN CORPUSCULAR VOLUME,[1],61 fL
same,MONOCYTE,[1],1%
same,NEUTROPHIL,[1],6.33%
same,NUCLEATED RED BLOOD CELLS,[1],0 /100WBC
same,PLATELET COUNT,[1],1230 x10E3/uL
same,ALANINE AMINOTRANSFERASE,[1],47 u/L
same,ALBUMIN,[1],4.27 G/DL
same,ALKALINE PHOSPHATASE,[1],395.67 u/L
same,ASPARTATE AMINOTRANSFERASE,[1],103 u/L
same,BLOOD UREA NITROGEN,[1],14.67 mg/dL
same,CARBON DIOXIDE,[1],21.33 mmol/L
same,CHLORIDE,[1],104.33 MEQ/L
same,CHOLESTEROL,[1],72.33 mg/dL
same,CREATINE PHOSPHOKINASE,[1],763 u/L
same,CREATININE,[1],0.22 mg/dL
same,GLUCOSE,[1],150.33 mg/dL
same,LACTATE DEHYDROGENASE,[1],650.33 u/L
same,LIPASE,[1],9.67 u/L
same,PHOSPHORUS,[1],11.1 mg/dL
same,POTASSIUM,[1],5.84 MEQ/L
same,SODIUM,[1],144.4 MEQ/L
same,TOTAL BILIRUBIN,[1],0.23 mg/dL
same,TOTAL PROTEIN,[1],5.97 G/DL
same,URIC ACID,[1],1.73 mg/dL
same,ABSOLUTE BASOPHIL,[2],0 CELLS/uL
same,ABSOLUTE EOSINOPHIL,[2],82 CELLS/uL
same,ABSOLUTE LYMPHOCYTE,[2],11383.33 CELLS/uL
same,ABSOLUTE MONOCYTE,[2],248.67 CELLS/uL
same,ABSOLUTE SEGMENTED NEUTROPHIL,[2],719.33 CELLS/uL
same,BASOPHIL,[2],0%
same,EOSINOPHIL,[2],0.67%
same,ERYTHROCYTE COUNT,[2],6.66 x10E6/uL
same,HEMATOCRIT,[2],42.47%
same,HEMOGLOBIN,[2],16.67 G/DL
same,LEUKOCYTE COUNT,[2],12.43 x10E3/uL
same,LYMPHOCYTE,[2],91.33%
same,MEAN CORPUSCULAR HEMOGLOBIN,[2],25.07 pg
same,MEAN CORPUSCULAR HEMOGLOBIN CONCENTRATION,[2],39.27 G/DL
same,MEAN CORPUSCULAR VOLUME,[2],63.83 fL
same,MONOCYTE,[2],2%
same,NEUTROPHIL,[2],6%
same,NUCLEATED RED BLOOD CELLS,[2],0 /100WBC
same,PLATELET COUNT,[2],1265 x10E3/uL
same,ALANINE AMINOTRANSFERASE,[2],92.67 u/L
same,ALBUMIN,[2],4.43 G/DL
same,ALKALINE PHOSPHATASE,[2],485 u/L
same,ASPARTATE AMINOTRANSFERASE,[2],204 u/L
same,BLOOD UREA NITROGEN,[2],18 mg/dL
same,CARBON DIOXIDE,[2],19 mmol/L
same,CHLORIDE,[2],95 MEQ/L
same,CHOLESTEROL,[2],234.67 mg/dL
same,CREATINE PHOSPHOKINASE,[2],2551 u/L
same,CREATININE,[2],0.29 mg/dL
same,GLUCOSE,[2],119.67 mg/dL
same,LACTATE DEHYDROGENASE,[2],1110.67 u/L
same,LIPASE,[2],14.67 u/L
same,PHOSPHORUS,[2],14.47 mg/dL
same,POTASSIUM,[2],7.66 MEQ/L
same,SODIUM,[2],141.13 MEQ/L
same,TOTAL BILIRUBIN,[2],0.47 mg/dL
same,TOTAL PROTEIN,[2],6.5 G/DL
same,URIC ACID,[2],2.7 mg/dL
same,ABSOLUTE BASOPHIL,[3],0 CELLS/uL
same,ABSOLUTE EOSINOPHIL,[3],63.33 CELLS/uL
same,ABSOLUTE LYMPHOCYTE,[3],17542.67 CELLS/uL
same,ABSOLUTE MONOCYTE,[3],192.67 CELLS/uL
same,ABSOLUTE SEGMENTED NEUTROPHIL,[3],1468 CELLS/uL
same,BASOPHIL,[3],0%
same,EOSINOPHIL,[3],0.33%
same,ERYTHROCYTE COUNT,[3],6.35 x10E6/uL
same,HEMATOCRIT,[3],38.03%
same,HEMOGLOBIN,[3],14.87 G/DL
same,LEUKOCYTE COUNT,[3],19.27 x10E3/uL
same,LYMPHOCYTE,[3],91%
same,MEAN CORPUSCULAR HEMOGLOBIN,[3],23.37 pg
same,MEAN CORPUSCULAR HEMOGLOBIN CONCENTRATION,[3],39.1 G/DL
same,MEAN CORPUSCULAR VOLUME,[3],59.8 fL
same,MONOCYTE,[3],1%
same,NEUTROPHIL,[3],7.67%
same,NUCLEATED RED BLOOD CELLS,[3],0 /100WBC
same,PLATELET COUNT,[3],1370.33 x10E3/uL
same,ALANINE AMINOTRANSFERASE,[3],101.67 u/L
same,ALBUMIN,[3],4.07 G/DL
same,ALKALINE PHOSPHATASE,[3],465 u/L
same,ASPARTATE AMINOTRANSFERASE,[3],89.67 u/L
same,BLOOD UREA NITROGEN,[3],18.33 mg/dL
same,CARBON DIOXIDE,[3],25.67 mmol/L
same,CHLORIDE,[3],100 MEQ/L
same,CHOLESTEROL,[3],227.67 mg/dL
same,CREATINE PHOSPHOKINASE,[3],489.33 u/L
same,CREATININE,[3],0.22 mg/dL
same,GLUCOSE,[3],124.33 mg/dL
same,LACTATE DEHYDROGENASE,[3],134 u/L
same,LIPASE,[3],12.67 u/L
same,PHOSPHORUS,[3],12.77 mg/dL
same,POTASSIUM,[3],6.56 MEQ/L
same,SODIUM,[3],145.37 MEQ/L
same,TOTAL BILIRUBIN,[3],0.2 mg/dL
same,TOTAL PROTEIN,[3],6.2 G/DL
same,URIC ACID,[3],1.77 mg/dL
